# Literature values in patent publication US20250152507A1, “SUBLINGUAL COMPOSITIONS FOR ERECTILE DYSFUNCTION” (Woody's Medical LLC, priority 2023, published 2025).
# Tested on: men with mild ED
# Details: reported in C. McMahon et al., BMJ 2006
smiles,measurement,value
"CN1CCc2cccc3c2[C@H]1Cc1ccc(O)c(O)c1-3 [Apomorphine, apomorphine]",effect in men with mild ED,only a small effect
